Structures can show the parent of a compound that is named as a salt.
Columns and labels:
GSK3β = experiment: Western blot of GSK3β-phospho-ser9 in SW480 cells; format: cell-based, human; details: various concentrations, 48 hours, vs 0 concentration
Experimental: (§1) 50 μg protein/lane were analyzed by Western blot analysis using specific anti-PKG1β and anti-GSK3β-phospho-ser9 antibodies.

PKG1β = experiment: Western blot of PKG1β in SW480 cells; format: cell-based, human; details: various concentrations, 48 hours
Experimental: as §1

[1] = molecular target: T1, GST-cGB-PDE5 fusion protein (Homo sapiens, UniProt O76074); experiment: cGMP binding assay with GST-cGB-PDE5 fusion protein; details: for competition with cGMP for the cGMP binding sites: 3H-cGMP 2 μM, 22° C., 1 hour
T1 construct: made in house; host or cells: E. coli BL21 (DE3)
Experimental: 5′-3′, Inc. kits for total RNA followed by oligo (dT) column purification of mRNA are used with HT-29 cells. […] It is then cloned into pGEX-5X-3 glutathione-S-transferase (GST) fusion vector (Pharmacia Biotech) with tac promoter, and EcoRI and XhoI cut sites. The fusion vector is then transfected into E. Coli BL21 (DE3) bacteria (Invitrogen). The transfected BL21 bacteria is grown to log phase, and then IPTG is added as an inducer. The induction is carried at 20° C. for 24 hrs. The bacteria are harvested and lysed. The soluble cell lysate is incubated with GSH conjugated Sepharose 4B (GSH-Sepharose 4B). The GST-cGB-PDE5 fusion protein can bind to the GSH-Sepharose beads, and the other proteins are washed off from beads with excessive cold PBS.
Then, the mixture is transferred to Brandel MB-24 cell harvester with GF/B as the filter membrane followed by 2 washes with 10 mL of cold 5 mM potassium buffer( pH 6.8). The membranes are then cut out and transferred to scintillation vials followed by the addition of 1 mL of H2O and 6 mL of Ready Safe™ liquid scintillation cocktail to each vial. The vials are counted on a Beckman LS 6500 scintillation counter.
The quenching by filter membrane or other debris are also calibrated.

PDE 5 = PDE 5 (Homo sapiens, UniProt O76074); experiment: Competitive (with cGMP) binding to PDE5
PDE1 = experiment: PDE inhibition, similar protocols; format: biochemical
PDE4 = experiment: PDE inhibition, similar protocols; format: biochemical
rats [2] = experiment: Acute toxicity study in rats; details: rat, in vivo
dogs [3] = experiment: Acute and seven-dose toxicity in dogs; details: dog, in vivo
Experimental: Therefore, these dogs were subsequently administered seven consecutive doses of 1000 mg/kg/day.

rats [4] = experiment: Seven-day dose-range finding study in rats; format: in vivo, rat; details: 7 days
rats [5] = experiment: 28-day study in rats; format: in vivo, rat
Experimental: A 28-day study in rats was also carried out at 0, 50, 500 and 2000 mg/kg/day.

rats [6] = experiment: Long-term (91-day) safety assessment study in rats; format: in vivo, rat
Source text: These changes were not associated with any gross clinical abnormality.

dogs [7] = experiment: 91-day oral study in dogs; format: in vivo, dog
human patients = experiment: Single, escalating dose human clinical safety study; format: in vivo; details: oral, 50 mg BID, 100 mg BID, 200 mg BID and 400 mg BID
PKG = PKG activity assay on lysates of drug-treated SW480 colon cancer cells (32P phosphorylation of PDE5/GST substrate); format: cell-based, human; details: SW480 cells treated 48 hrs; exisulind 200, 400, 600 μM, E4021 0.1, 1, 10 μM; assay with and without added cGMP
Experimental: A compound that inhibits all these types of PDE is desirable, accordingly. Below, we provide examples of such PDE-inhibiting compounds.
SW 480 is known to contain the APC mutation. About 5 million SW480 cells in RPMI 5% serum are added to each of 8 dishes:
2-10 cm dishes - - - 30 μL DMSO vehicle control (without drug),
3-10 cm dishes - - - 200 μM, 400 μM, 600 μM exisulind in DMSO, and
The dishes are incubated for 48 hrs at 37° C. in 5% CO2 incubator.
The liquid media are aspirated from the dishes (the cells will attach themselves to the dishes). The attached cells are washed in each dish with cold PBS, and 200 μL cell lysis buffer (i.e., 50 mM Tris-HCl, 1% NP-40, 150 mM NaCl, 1 mM EDTA, 1 mM Na3VO4, 1 mM NaF, 500 μM IBMX with proteinase inhibitors) is added to each dish. Immediately after the cell lysis buffer is added, the lysed cells are collected by scraping the cells off each dish. The cell lysate from each dish is transferred to a microfuge tube, and the microfuge tubes are incubated at 4° C. for 15 minutes while gently agitating the microfuge tubes to allow the cells to lyse completely. […]
For each control or drug cell lysate sample to be evaluated, the reaction is started by adding phosphorylation buffer containing 10 μCi ^32P-γ-ATP solution (200 μM ATP, 4.5 mM MgCl; 5 mM KH2PO4; 5 mM K2HPO4;) to each mixture. […]

native bovine PDE5 = native bovine PDE5 (Bos taurus, UniProt Q28156); details: read-out: Kd of cGMP binding; cited from earlier work
[8] = 28 days, 50, 500 and 2000 mg/kg/day
[9] = 91 days, highest dose group (300 mg/kg/day)

In the case of `CC1=C(CC(=O)NCc2ccccc2)c2cc(F)ccc2/C1=C\c1ccncc1` [Example 38, (Z)-5-Fluoro-2-Methyl-(4-Pyridylidene)-3-(N-Benzyl) Indenylacetamide Hydrochloride], the “GSK3β inactivation by Ser9 phosphorylation” value (GSK3β) is reported as “inactivated in vivo by phosphorylation of its Ser9”, the PKG1 induction (PKG1β) is reported as “PKG1 induction in a dose-dependent manner” and the “competition with cGMP for the cGMP binding sites” value [1] is reported as “does not bind to the cGMP-binding site of PDE5”. For the same compound, the “competitive binding with cGMP to PDE5” value (PDE 5) was “does competitively (with cGMP) bind to PDE 5”, the IC50 (PDE1) was 3000 nM and the IC50 (PDE4) was 6000 nM. The body weight gain (rats [2]; ip, 1000 mg/kg) was “reduced body weight gain”, the necropsy findings (rats [2]; ip, 1000 mg/kg) was “mesenteric adhesions seen in some animals” and the body weight gains (rats [2]; po, 2000 mg/kg) was “slightly reduced”. The signs of toxicity (dogs [3]; 1000 mg/kg) was “no signs of toxicity”, the “signs of drug-related effects” value (dogs [3]; 1000 mg/kg/day) was “At no time in either dosing phase were any obvious signs of drug-related effects observed” and the signs of toxicity (rats [4]; 50 mg/kg/day) was “no observable signs of toxicity”. The treatment-related effects (rats [4]; 500 mg/kg/day) was “an increase in absolute and relative liver weights in female rats”, the treatment-related effects (rats [4]; 2000 mg/kg/day) was “labored breathing and/or abnormal respiratory sounds, decreased weights gains and food consumption in male rats, and increased liver weights in female rats” and the “hematology, blood chemistry, microscopic pathology” value (rats [4]; any dose level (50, 500, 2000 mg/kg/day)) was “No hematological or blood chemistry changes nor any microscopic pathology changes”. The “macroscopic tissue changes at necropsy” value (rats [5]; 28 days) was “No macroscopic tissue changes”, the “histopathological evaluation of tissues” value (rats [5]; 28 days, 500 mg/kg/day) was “one female at 500 mg/kg/day had increased mitotic figures in the thyroid gland” and the liver weights (rats [5]; 28 days, 2000 mg/kg/day) was “statistically significant increase in liver weights”. The thyroid weights (rats [5]; 28 days, 2000 mg/kg/day) was “statistically significant increases in thyroid weights”, the “body weight changes, ophthalmoscopic examinations, hematological and blood chemistry values, urinalysis” value (rats [5]; [8]) was “unremarkable” and the clinical observations (rats [5]; [8]) was “no abnormal clinical observations”. The “liver and thyroid weight increases at the lower doses” value (rats [5]; 28 days, 50 and 500 mg/kg/day) was “not statistically significant”, the “histopathological evaluation of tissues” value (rats [5]; 28 days, generally limited to a small number of animals at 2000 mg/kg/day) was “traces of follicular cell hypertrophy, increased numbers of mitotic figures (suggestive of possible cell proliferation) in the thyroid gland and mild centrilobular hypertrophy in the liver” and the “clinical biochemistry and hematology” value (rats [6]; 91 days) was “no changes in clinical biochemistry and hematology were evident”. For the same compound, the thyroid microscopy (rats [6]; 91 days, 500 mg/kg/day) was “follicular cell hypertrophy”, the kidney microscopy (rats [6]; 91 days, 200 and 500 mg/kg/day) was “increase in accumulation of hyalin droplets in the kidneys” and the liver microscopy (rats [6]; 91 days, 200 and 500 mg/kg/day) was “slight hepatocellular hypertrophy”. For the same compound, the “liver and thyroid/parathyroid weights” value (rats [6]; 91 days, males and females at 200 and 500 mg/kg/day) was “dose-related trend to increased liver and thyroid/parathyroid weights”, the toxicological effects overall (rats [6]; oral, 91 consecutive days, 50, 200 and 500 mg/kg/day) was “did not produce any major toxicological effects” and the “route of elimination (suggested by feces colour)” value (dogs [7]; 91 days oral) was “most of Compound 38 was being eliminated via the feces”. The feces observation (dogs [7]; 91 days, 150 and 300 mg/kg/day) was “Orange discoloration of the feces”, the liver microscopy (dogs [7]; 91 days, highest dose group) was “no microscopic alterations” and the body weights (dogs [7]; [9]) was “Slightly lowered body weights”. For the same compound, the liver weights (dogs [7]; [9]) was “increased liver weights”, the toxicological effects overall (dogs [7]; oral, 91 consecutive days, 50, 150 and 300 mg/kg/day) was “no toxicological effects” and the side effects (human patients) was “no significant side effects at any dose”.

For `O=C([O-])C1CCN(c2nc(NCc3ccc4c(c3)OCO4)c3cc(Cl)ccc3n2)CC1.[Na+]` [Example E4021], the “PKG activity relative to control” value (PKG) was “do not exhibit PKG activation relative to control” and the “competition with cGMP for the cGMP binding sites” value [1] was “None of the PDE5 inhibitors showed any competition with cGMP in binding”.

In the case of `Nc1nc2c(ncn2[C@@H]2O[C@@H]3COP(=O)(O)O[C@H]3[C@H]2O)c(=O)[nH]1` [cGMP, cyclic 3′,5′-guanosine monophosphate], the “binding of cGMP to the fusion protein” value [1] is listed as “specifically bound to GST-cGB-PDE5 protein”, the Kd ([1]; read-out: Kd of cGMP binding, two cGMP binding sites) is listed as 1600 ± 200 nM and the Kd (native bovine PDE5) is listed as 1300 nM.

From patent publication US20030194750A1, “Methods for treatment of diseases where GSK 3-beta is desired, and methods to identify compounds usefule for that” (priority 2002, published 2003)
